Laboratory results reported in patent US5175151A, “Antiviral compounds and antihypertensive compounds” (Schering Corporation, priority 1992, dated 1992).
≈ marks a conversion by molar mass, not a printed value. Read-outs that look alike come from different tables or passages of the source.

Experiments:
[1] = system: HSV-2 (strain MS); test: HSV-β-Gal assay: transient expression of beta galactosidase in transfected HeLa cells superinfected with HSV-2 (in-vitro anti-HSV activity); format: cell-based
Experimental: HeLa and Vero cell cultures were maintained in Eagles Minimal Essential Medium which was supplemented with glutamine, penecillin, streptomycin and 10% fetal calf serum (10% EMEM). Stock cultures of HSV-2 (strain MS available from ATCC VR-540) were grown in and harvested from Vero cells. Viral stocks were titered in Vero cells according to established procedures.
Plasmid pON 245^ori- contains the promoter of the HSV-1 thymidine kinase (tk) gene located immediately 5' of the E. coli lac Z gene. In this arrangement, the tk promoter controls transcription from the bacterial gene in transient expression assays. Additionally, an SV40 polyadenylation signal is present at the 3' end of the lac Z gene to allow for the efficient translation of the mRNA in eucaryotic cells. The expression of beta galactosidase in a transient assay using pON 245^ori- is dependent upon superinfection of the transfected cells with HSV. […] For example, see U.S. application Ser. No. 07/435,491 filed Sep. 5, 1989, the disclosure of which is incorporated herein by reference thereto.
HeLa cells were seeded into 96 well microtiter plates and allowed to grow to 80% confluency (approximately 35,000 cells/well). One half microgram of plasmid pON 245^ori- DNA was introduced into the cells of each well by the […] precipitation technique (Graham and Van der Eb, 1973). Four to six hours later, the cells were rinsed with Hank's Balanced Salt Soluton (HBSS), overlaid with 10% EMEM and incubated at 37° C. At 24 hrs post-trasnfection, cells were rinsed, overlaid with 10% EMEM again and re-incubated at 37° C. At 48 hrs post-transfection, cells were rinsed and overlaid with either EMEM containing 2% fetal calf serum (2% EMEM, 2% EMEM containing HSV-2 (strain MS, Multiplicity of Infection [moi]=5 pfu/cell) or 2% EMEM containing HSV-2 and the appropriate concentration of the compound to be tested. Twenty-four hrs later, the cells were harvested and assayed to beta galactosidase activity as described below.
All determinations of beta galactosidase activity were performed in 96 well microtiter plates. The intracellular level of beta galactosidase activity in each well was determined from cell lysates of the monolayer cultures. Aliquots were assayed by incubation in the presence of beta galactosidase substrate, 4-methylumbelliferyl-β-D-galactoside (MUG, 125 ug/ml, Sigma), for 2 hrs. The generation of fluorescent product was quantified on a Microfluor microfluorimeter (Dynatech) after addition of 0.1M glycine, pH 10.3 (Spaete and Mocarski, 1985). The inhibitory activity of a compound was plotted versus the concentration and an IC50 value (the concentration of compound required to reduce beta glactosidase expression by 50%) was obtained for each compound tested.

[2] = Compound toxicity assay: ^3 H-LEU HeLa cell translation (cytotoxicity); format: cell-based; details: human; HeLa cells, translational activity, overnight incubation at 37° C.; read-out: Cytotoxicity, ^3 H-LEU Assay IC50
Experimental: HeLa cells were treated with inhibitory compound for 24 hrs, after which levels of translational activity were assayed.
For assay of translational activity, HeLa cultures were grown to 80% confluency in 96 well microtiter plates, treated with appropriate concentrations of compound in 2% EMEM during an overnight incubation at 37° C., then rinsed with HBSS and overlaid with […] of 2% EMEM containing 8 uCi of tritiated leucine (^3 H-LEU, 141 Cu/mMol, Amersham Corp., Arlington Heights, Ill.). After a 1 hr incubation at 36.5° C., the cells were rinsed twice with phosphate buffered saline (PBS) and lysed in 400 ul/well of 1×PBS, 0.5% sodium dodecyl sulphate (SDS). After a 10 min incubation at 36.5° C., the contents of the well were transferred to a well in a Millititer HA microfiltration plate (Millipore Corp., Bedford, Mass.). The TCA insoluble proteins were precipitated onto the filter disc by a 10 min fixation with 5% TCA, followed by filtration over vacuum and three 10 minute rinses with 95% ethanol. The filters were dried at room temperature, cut from the milltitier plate and transferred to scintillation vials. TCA precipitable counts were assayed in 5 ml of Scintisol (Isolab, Akron, Ohio). The inhibitory activity of a compound was plotted versus the concentration and an IC50 value (that concentration of the compound required to decrease cellular translational activity by 50%) was derived for each compound.

[3] = biological target: T1, cGMP phosphodiesterase (cGMP-PDE) (Bos taurus, UniProt Q28156); test: Phosphodiesterase inhibition in vitro (cGMP-PDE); format: biochemical; details: bovine lung enzyme, 1 μM ^3 H-cGMP, pH 7.5, 25 minutes, room temperature
T1 construct: is a homogeneous enzyme obtained from bovine lung and purified by ion-exchange chromatography, gel filtration, and sucrose gradient centrifugation; from tissue; host or cells: bovine lung

[4] = system: spontaneously hypertensive rats (SHR); test: SHR analysis: fall in mean blood pressure in conscious spontaneously hypertensive rats; format: in vivo, rat (SHR males); details: for SHR MBP: 25 mpk (p.o.), Table IV
Experimental: The ability of the antihypertensive compounds of the present invention to lower blood pressure can be assessed in vivo in conscious spontaneously hypertensive rats (SHR). SHR males are purchased from Taconic Farms, Germantown, N.Y. and are approximately 16-18 weeks old when anesthetized with ether. The caudal (ventral tail) artery is cannulated with polyethylene tubing (PE50) and blood pressure and heart rate are recorded as described by Baum, T. et al, J. Cardiovasc. Pharmacol. Vol. 5, pp. 665-667, (1983). Rats are placed into plastic cylindrical cages where they rapidly recover consciousness. Blood pressure and heart rate are allowed to stabilize for approximately 90 minutes prior to compound administration. Compounds are administered orally as solutions or suspensions in 0.4% aqueous methylcellulose vehicle via a feeding needle. The compound or 0.4% aqueous methylcellulose vehicle are given in a volume of 4 ml/kg to SHRs that had been fasted overnight. Activity is expressed as the fall in mean blood pressure (MBP) in millimeters of mercury (mm Hg). Compound-induced changes are compared with the changes in an appropriate placebo group.

[5] = system: herpes virus; details: added to lidocaine or lidocaine hydrochloride; cited from earlier work
[6] = system: herpes virus; details: cited from earlier work
[7] = system: HSV-1; details: cited from earlier work
[8] = system: HSV-2; details: cited from earlier work
[9] = system: HSV; details: cited from earlier work
[10] = Human alphaherpesvirus 2, HeLa cells, HSV-2 strain MS, moi 5 pfu/cell, 24 hrs, read-out: Anti-HSV Activity, HSV-β-Gal Assay IC50
[11] = Human alphaherpesvirus 2, *Repeat, HeLa cells, HSV-2 strain MS, moi 5 pfu/cell, 24 hrs, read-out: Anti-HSV Activity, HSV-β-Gal Assay IC50 (repeat)

| Compound | IC50 [1, 10] [µg/mL] | CC50 [2] [µg/mL] | IC50 [3] [µM] | other results |
| --- | --- | --- | --- | --- |
| CN(C)CCOc1cc(=O)c2ccccc2n1C [Compound 1, 1-Methyl-2-(2-Dimethylaminoethoxy)-4(1H)-Quinolinone] | > 25 |  |  |  |
| COc1cc(=O)c2cc(C)ccc2n1Cc1ccccc1 [Compound 3, 1-Benzyl-2-Methoxy-6-Methyl-4(1H)-Quinolinone] | 13 (≈ 46.5 µM) | 85 (≈ 304 µM) | 6 |  |
| COc1cc(=O)c2ccccc2n1Cc1ccccc1 [Compound 4, 1-Benzyl-2-Methoxy-4(1H)-Quinolinone] | 20 (≈ 75.4 µM) | 45 (≈ 170 µM) | 2.6 |  |
| CCCCCCCn1c(OC)cc(=O)c2ccccc21 [Compound 5, 1-Heptyl-2-Methoxy-4(1H)-Quinolinone] | 9 (≈ 32.9 µM) | 45 (≈ 165 µM) | 5.9 |  |
| CCCCCCn1c(OC)cc(=O)c2cccc(C)c21 [Compound 6, 1-Hexyl-2-Methoxy-8-Methyl-4(1H)-Quinolinone] |  | 27 (≈ 98.8 µM) | > 100 | IC50 ([1]; Human alphaherpesvirus 2, HeLa, 24 h, read-out: Anti-HSV Activity, HSV-β-Gal Assay IC50): 3 µg/mL (≈ 11 µM); IC50 [1, 11]: 6 µg/mL (≈ 21.9 µM); SHR MBP [4]: -1 mm of Hg |
| CCCCCCn1c(OC)cc(=O)c2cccc(OC)c21 [Compound 7, 1-Hexyl-2,8-Dimethoxy-4(1H)-Quinolinone] | 5 (≈ 17.3 µM) | 21 (≈ 72.6 µM) |  | IC50 [1, 11]: 8 µg/mL (≈ 27.6 µM) |
| COc1cc(=O)c2cc(C)c(C)cc2n1Cc1ccc(O[Si](C)(C)C(C)(C)C)cc1 [Compound 8, 1-[4-(t-Butyl-Dimethylsilyloxy)] Benzyl-2-Methoxy-6,7-Dimethyl-4-(1H)-Quinolinone] | 2 (≈ 4.72 µM) | 25 (≈ 59 µM) |  |  |
| CCOC(=O)c1c(OC)n(Cc2ccccc2)c2ccc(C)cc2c1=O [Compound 9, 1-Benzyl-2-Methoxy-3-Carbethoxy-6-Methyl-4-(1H)-Quinolinone] | 3 (≈ 8.54 µM) | 79 (≈ 225 µM) |  |  |
| COc1cc(=O)c2ccc(OC)c(C)c2o1 [Compound 10, 2,7-Dimethoxy-8-Methyl-1,4-Benzopyrone] | 18 (≈ 81.7 µM) | > 100 | 13 |  |
| COc1cc(=O)c2cc(C)c(C)cc2n1Cc1ccc(O)cc1 [Compound 11] | 10 (≈ 32.3 µM) |  |  |  |
| COc1c(Cl)c(=O)c2cc(C)ccc2n1Cc1ccccc1 [Compound 12] | 4 (≈ 12.7 µM) | 12 (≈ 38.2 µM) |  |  |
| COc1c(I)c(=O)c2ccccc2n1Cc1ccccc1 [Compound 13] | 4 (≈ 10.2 µM) | 27 (≈ 69 µM) |  |  |
| Cn1c(OCCO)cc(=O)c2ccccc21 [Compound 14] | > 25 |  |  |  |
| COc1cc(=O)c2cccc(C)c2n1C [Compound 15] |  |  |  | SHR MBP (fall in mean blood pressure) ([4]; 25 mpk (P.O.), Table III): 12 mm of Hg |
| CCCCCCn1c(OC)cc(=O)c2cc(C)ccc21 [Compound 16] |  |  | 0.6 |  |
| CCCCCCn1c(OC)c(C(=O)OCC)c(=O)c2ccccc21 [Compound 17] |  |  | 14 |  |
| COc1cc(=O)c2cc(OCc3ccccc3)ccc2n1Cc1ccccc1 [R H, R1 --CH3, R2 6-OCH2 Ph, R3 --CH2 Ph] |  |  | > 100 |  |
| COc1ccc2c(c1)c(=O)cc(OC)n2Cc1ccccc1 [R H, R1 --CH3, R2 6-OCH3, R3 --CH2 Ph] |  |  | > 100 |  |
| COc1cc(=O)c2ccc(Cl)cc2n1C [R H, R1 --CH3, R2 7-Cl, R3 --CH3] |  |  | > 100 | SHR MBP [4]: -7 mm of Hg |
| COC(=O)Cn1c(OC)cc(=O)c2ccccc21 [R H, R1 --CH3, R2 --, R3 --CH2 CO2 CH3] |  |  | > 100 |  |
| CC(C)(CO)[C@@H](O)C(=O)NCCCO [dexpanthenol] |  |  |  | enhancement of antiviral activity on addition to lidocaine or lidocaine hydrochloride [5]: significantly enhances the antiviral activity |
| CCN(CC)CC(=O)Nc1c(C)cccc1C [lidocaine, 2-(diethylamino)-N-(2,6-dimethylphenyl)acetamide] |  |  |  | treatment of herpes virus infections of mammals [6]: able to treat herpes virus infections of mammals; antiviral agent in cell culture against HSV-1 [7]: antiviral agent; antiviral agent in cell culture against HSV-2 [8]: antiviral agent; treatment of HSV oral and genital lesions in humans [9]: particularly effective |
| CC(C)(CO)[C@@H](O)C(=O)NCCC(=O)O [pantothenic acid] |  |  |  | enhancement of antiviral activity on addition to lidocaine or lidocaine hydrochloride [5]: significantly enhances the antiviral activity |
